Measurements reported in patent US11352365B2, “Biased potent opioid-like agonists as improved medications to treat chronic and acute pain and methods of using the same” (THE UNITED STATES OF AMERICA, AS REPRESENTED BY THE …, priority 2018, dated 2022).
Read-outs that look alike come from different tables or passages of the source.

Legend:
[1] = target: μ opioid receptor (Rattus norvegicus, UniProt P33535); settings: read-out: 3H DAMGO μ Ki ± SEM; rat tissue, triplicate
[2] = target: T1, MOR (Homo sapiens, UniProt P35372); experiment: cell-based; type: cell-based; parameters: host or cells: U2OS-β-arrestin2-EFC-hMOR
Experimental: The PathHunter β-arrestin assay. The assay was performed according to the manufacturer's protocol (DiscoveRx) and as described previously. Briefly, 5000 U2OS-β-arrestin2-EFC-hMOR cells were plated in 384-well white plates with Opti-MEM media (Invitrogen) containing 1% FBS±pertussis toxin (100 ng/ml) overnight. The next day, cells were treated with compounds for 90 min at 37° C., followed by a 1-hour incubation of detection reagent at room temperature. Luminescence values were determined by using a Synergy HT luminometer (BioTek).

[3] = target: T2, κ opioid receptor (Rattus norvegicus, UniProt P34975); experiment: Binding assay, 3H U69,593, rat tissue
T2 construct: from tissue; host or cells: rat tissue (per the earlier reading)

[4] = target: T3, δ opioid receptor (Rattus norvegicus, UniProt P33533); experiment: Binding assay, 3H DADLE, rat tissue; settings: 100 nM concentration
T3 construct: from tissue; host or cells: rat tissue (per the earlier reading)

[5] = target: T1, MOR; experiment: cell-based; type: cell-based; parameters: expressed in transfected cells; host or cells: CHO-hMOR (membrane variant); SH-SY5Y-hMOR also named
Experimental: Four thousand cells per well were split into 384-well low-volume plate (VWR) with Opti-MEM (Invitrogen) supplemented with 1% FBS for 3 hours at 37° C. except SH-SY5Y-hMOR cells, which were plated for 1 hour at 37° C. Cells were then treated with drugs, […] forskolin for 30 min at room temperature.
Cells were then homogenized by a Dounce homogenizer 15 times in an ice-cold buffer [50 mM Hepes (pH 7.4)], followed by centrifugation at 500 g at 4° C. for 5 min. The supernatant was transferred to a 1.5-ml tube on ice, and the pellet was resuspended, homogenized, and centrifuged at 500 g at 4° C. for 5 min. Then, the supernatant was combined and spun at 20,000 g at 4° C. for 10 min. The membrane pellet was resuspended in an ice-cold buffer [50 mM Hepes (pH 7.4)] at concentrations of […]. Membranes were stored at −80° C. until use. For forskolin-stimulated cAMP accumulation assay, membranes were diluted in an assay buffer (50 mM Hepes, 10 mM MgCl2, 100 mM NaCl, 200 mM adenosine 5′-triphosphate, 10 mM GTP, 100 mM 3-isobutyl-1-methylxanthine, 20 mM forskolin, and 30 mM bovine serum albumin) and plated at […] of protein in each well. Membranes were treated with test compounds for 30 min at room temperature. The cAMP levels were determined as per the manufacturer's instructions (Cisbio cAMP HiRange assay).

T1 sequence (P35372 whole entry): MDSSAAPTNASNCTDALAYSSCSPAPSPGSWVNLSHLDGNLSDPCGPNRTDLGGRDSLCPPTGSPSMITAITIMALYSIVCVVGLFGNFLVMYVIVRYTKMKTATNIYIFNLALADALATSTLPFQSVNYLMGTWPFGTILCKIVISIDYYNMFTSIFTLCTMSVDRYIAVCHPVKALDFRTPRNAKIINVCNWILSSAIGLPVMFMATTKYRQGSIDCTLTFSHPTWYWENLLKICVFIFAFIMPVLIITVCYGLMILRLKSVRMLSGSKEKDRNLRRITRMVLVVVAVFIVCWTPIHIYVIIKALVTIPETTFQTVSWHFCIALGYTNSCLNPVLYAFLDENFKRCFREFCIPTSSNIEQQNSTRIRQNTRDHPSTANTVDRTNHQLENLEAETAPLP
T2 sequence (P34975 whole entry): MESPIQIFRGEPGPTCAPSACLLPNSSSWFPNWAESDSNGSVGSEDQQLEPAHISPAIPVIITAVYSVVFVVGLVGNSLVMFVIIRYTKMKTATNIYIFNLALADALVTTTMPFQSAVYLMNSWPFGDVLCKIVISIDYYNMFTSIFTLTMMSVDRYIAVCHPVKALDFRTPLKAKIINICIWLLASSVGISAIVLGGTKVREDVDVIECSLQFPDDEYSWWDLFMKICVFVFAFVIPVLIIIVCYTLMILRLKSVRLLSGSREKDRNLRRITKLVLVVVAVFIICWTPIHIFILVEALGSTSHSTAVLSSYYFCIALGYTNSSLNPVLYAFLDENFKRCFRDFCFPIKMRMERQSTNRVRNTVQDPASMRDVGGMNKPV
T3 sequence (P33533 whole entry): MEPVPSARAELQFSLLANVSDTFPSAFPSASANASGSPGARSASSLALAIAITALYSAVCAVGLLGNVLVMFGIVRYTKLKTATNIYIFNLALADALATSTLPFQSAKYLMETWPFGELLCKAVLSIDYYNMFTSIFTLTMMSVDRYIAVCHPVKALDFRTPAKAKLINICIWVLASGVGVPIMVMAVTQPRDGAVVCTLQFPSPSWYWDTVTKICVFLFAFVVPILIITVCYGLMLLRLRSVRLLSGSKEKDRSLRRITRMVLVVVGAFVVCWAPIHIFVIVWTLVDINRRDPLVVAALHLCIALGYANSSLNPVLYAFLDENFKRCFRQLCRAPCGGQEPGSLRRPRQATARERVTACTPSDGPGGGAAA
Chain of μ opioid receptor (P33535 whole entry): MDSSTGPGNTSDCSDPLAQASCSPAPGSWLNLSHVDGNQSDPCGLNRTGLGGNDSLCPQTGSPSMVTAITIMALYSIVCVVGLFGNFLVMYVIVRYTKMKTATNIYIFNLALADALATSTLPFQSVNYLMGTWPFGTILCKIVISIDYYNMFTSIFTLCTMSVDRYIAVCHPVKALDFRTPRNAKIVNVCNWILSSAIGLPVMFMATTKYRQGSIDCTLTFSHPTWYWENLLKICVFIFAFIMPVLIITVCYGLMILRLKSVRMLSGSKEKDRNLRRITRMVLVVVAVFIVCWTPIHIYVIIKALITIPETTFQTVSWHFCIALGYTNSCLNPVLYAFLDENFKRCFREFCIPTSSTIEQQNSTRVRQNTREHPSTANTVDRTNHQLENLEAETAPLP

What does the source list for “3-((1S,5R,9R)-9-(2-hydroxyethyl)-2-phenethyl-2-azabicyclo[3.3.1]nonan-5-yl)phenol [Compound 9]”?
Ki [1]: 5.43 ± 0.09 nM; beta-arrestin recruitment (in words) [2]: do not; EC50 ([2]; Table 1, read-out: MOR Mediated β-arrestin Recruitment): > 25000 nM; 3H U69,593 κ activity in exploratory assay ([3]; 100 nM concentration, rat tissue): I (<50% activity at 100 nM concentration (displaced less than half of radioligand) in exploratory assay); interaction with the kappa-receptor (in words) ([3]; in vitro data): does not interact with the kappa-receptor; 3H DADLE δ activity in exploratory assay [4]: I (<50% activity at 100 nM concentration (displaced less than half of radioligand) in exploratory assay); MOR cAMP Agonist (% Efficacy) ([5]; Table 1): (64 ± 2%); EC50 ([5]; Table 1, read-out: MOR cAMP Agonist Potency ± SEM): 4.7 ± 0.5 nM; agonist character at the mu-receptor (in words) ([5]; in vitro data): less potent partial agonist
